Test results reported in publication PMC6696179, “Structural Optimization and Structure–Activity Relationship of 4-Thiazolidinone Derivatives as Novel Inhibitors of Human Dihydroorotate Dehydrogenase” (Molecules, 2019).
pIC50: −log10 of the molar value.

Experiments:
[1] = molecular target: T1, hDHODH (Homo sapiens, UniProt Q02127); experiment: hDHODH enzyme inhibition assay (DCIP/UQ0, dihydroorotate-initiated); format: biochemical; conditions: for inhibition at 10 µM: compound at 10 µM, 10 nM purified hDHODH; for pIC50: three independent tests, determined if inhibition at 10 μM was greater than 50%;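 for all read-outs here: recombinant hDHODH (Met30–Arg396) in HEPES pH 8.0 buffer with KCl and Triton X-100, reaction started by 500 µM dihydroorotate, inhibition from rate with inhibitor relative to uninhibited rate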
T1 construct: The plasmid pET-19b–hDHODH (Met30-Arg396) was transformed; inferred from the pET-19b vector and from purification on a chelating column with imidazole elution) (N); made in house; host or cells: E. coli BL21 (DE3)
T1 sequence (Q02127 29-395 limits assumed): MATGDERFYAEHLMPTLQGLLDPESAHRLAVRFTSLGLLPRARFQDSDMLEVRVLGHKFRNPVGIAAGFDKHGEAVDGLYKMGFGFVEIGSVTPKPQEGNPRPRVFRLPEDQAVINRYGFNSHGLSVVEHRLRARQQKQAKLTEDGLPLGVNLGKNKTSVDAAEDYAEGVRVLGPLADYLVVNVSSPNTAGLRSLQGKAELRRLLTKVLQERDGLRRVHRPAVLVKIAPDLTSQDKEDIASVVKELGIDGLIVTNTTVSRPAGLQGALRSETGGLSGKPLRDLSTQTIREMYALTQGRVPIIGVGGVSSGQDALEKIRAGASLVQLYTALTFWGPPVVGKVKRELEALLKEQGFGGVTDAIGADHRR
Experimental: The purified hDHODH was diluted into a final concentration of 10 nM with the assay buffer contained 50 mM HEPES pH 8.0, 150 mM KCl, 0.1% Triton X-100. […] The dihydroorotate was added to a final concentration of 500 μM to initiate the reaction. […] Inhibition rate was calculated from (1-Vi/V0) × 100. For the determination of the IC50 values, eight to nine different concentrations were applied. Each inhibitor concentration point was tested in triplicate. IC50 values were calculated using the sigmoidal fitting option of the program Origin 8.0.

COC(=O)/C(C#N)=C1\SCC(=O)N1c1ccc(C(=O)Nc2ccc3ccccc3c2)cc1 [Compound 38, Methyl (Z)-2-cyano-2-(3-(4-(naphthalen-2-ylcarbamoyl)phenyl)-4-oxothiazolidin-2-ylidene)acetate]
hDHODH inhibitory activity in words [1]: inactive | inhibition at 10 µM [1]: 38.2% | pIC50 [1]: < 5.00 | melting point: 285 to 286 °C

COC(=O)/C(C#N)=C1\SCC(=O)N1c1ccc(C(=O)NCc2ccccc2)cc1 [Compound 39, Methyl (Z)-2-(3-(4-(benzylcarbamoyl)phenyl)-4-oxothiazolidin-2-ylidene)-2-cyanoacetate]
hDHODH inhibitory activity in words [1]: inactive | inhibition at 10 µM [1]: 39.9% | pIC50 [1]: < 5.00 | melting point: 117.3 to 118.1 °C

COC(=O)/C(C#N)=C1\SCC(=O)N1c1ccc(C(=O)Nc2ccccc2C(=O)O)cc1 [Compound 40, (Z)-2-(4-(2-(1-Cyano-2-methoxy-2-oxoethylidene)-4-oxothiazolidin-3-yl)benzamido)benzoic acid]
inhibition at 10 µM [1]: 34.5% | pIC50 [1]: < 5.00 | melting point: 261.8 to 262.5 °C

COC(=O)/C(C#N)=C1\SCC(=O)N1c1ccc(C(=O)Nc2cccc(C(=O)O)c2)cc1 [Compound 41, (Z)-3-(4-(2-(1-Cyano-2-methoxy-2-oxoethylidene)-4-oxothiazolidin-3-yl)benzamido)benzoic acid]
inhibition at 10 µM [1]: 23.5% | pIC50 [1]: < 5.00 | melting point: 205.7 to 206.6 °C

COC(=O)/C(C#N)=C1\SCC(=O)N1c1ccc(C(=O)NCc2ccccc2C(=O)O)cc1 [Compound 42, (Z)-2-((4-(2-(1-cyano-2-methoxy-2-oxoethylidene)-4-oxothiazolidin-3-yl)benzamido)methyl)-benzoic acid]
inhibition at 10 µM [1]: 36.8% | pIC50 [1]: < 5.00 | melting point: 217.3 to 218.1 °C

COC(=O)/C(C#N)=C1\SCC(=O)N1c1ccc(C(=O)NCc2cccc(C(=O)O)c2)cc1 [Compound 43, (Z)-3-((4-(2-(1-cyano-2-methoxy-2-oxoethylidene)-4-oxothiazolidin-3-yl)benzamido)methyl) benzoic acid]
inhibition at 10 µM [1]: 44% | pIC50 [1]: < 5.00 | melting point: 205.7 to 206.6 °C

COC(=O)/C(C#N)=C1\SCC(=O)N1c1ccc(C(=O)Nc2ccc(C(C)(C)C)c(C(=O)O)c2)cc1 [Compound 44, (Z)-2-(tert-butyl)-5-(4-(2-(1-cyano-2-methoxy-2-oxoethylidene)-4-oxothiazolidin-3-yl)benzamido)benzoic acid]
inhibition at 10 µM [1]: 30.3% | pIC50 [1]: < 5.00 | melting point: 328.1 to 328.9 °C

COC(=O)/C(C#N)=C1\SCC(=O)N1c1ccc(C(=O)Nc2ccc3c(C(C)=O)cccc3c2)cc1 [Compound 45, Methyl (Z)-2-(3-(4-((5-acetylnaphthalen-2-yl)carbamoyl)phenyl)-4-oxothiazolidin-2-ylidene)-2-cyanoacetate]
inhibition at 10 µM [1]: 42.2% | pIC50 [1]: < 5.00 | melting point: 275 to 275.8 °C
